In paper PMC7279002, “Novel 3′-Substituted-1′,2′,4′-Oxadiazole Derivatives of 18βH-Glycyrrhetinic Acid and Their O-Acylated Amidoximes: Synthesis and Evaluation of Antitumor and Anti-Inflammatory Potential In Vitro and In Vivo” (International Journal of Molecular Sciences, 2020):
Read-outs that look alike come from different tables or passages of the source.

Columns and labels:
[1] = system: carrageenan-induced peritonitis; experiment: Carrageenan-induced peritonitis; type: in vivo, ICR mice; conditions: i.p. 1 h before carrageenan, 4 h
Procedure: To study the effect of 3d on carrageenan-induced peritonitis, ICR mice were injected with 1% carrageenan (250 μL) intraperitoneally (i.p.). Compound 3d (50 mg/kg), vehicle (10% Tween-80), dexamethasone (1 mg/kg) as a reference anti-inflammatory drug, and saline buffer were administered i.p. 1 h before peritonitis induction. The healthy uninflamed group (control) was injected i.p. by saline. Mice were sacrificed 4 h after carrageenan injection and their peritoneal cavities were washed with 2 mL of heparinized cold saline buffer to obtain peritoneal cells. The peritoneal exudates were collected and the total leukocyte counts were performed with a Neubauer chamber by optical microscopy after diluting the peritoneal fluid with Turk solution (1:20). To determine the differential leukocyte counts (total 100 cells), peritoneal cells were centrifuged and placed onto slides, stained with azur–eosin by Romanovsky–Giemsa and examined by optical microscopy. The results were expressed as the number of total leukocytes (×10^5 cells/mL) and the percentages of subpopulations of neutrophils, lymphocytes, and monocytes.

[2] = system: human cervical carcinoma HeLa; experiment: MTT cytotoxicity assay, 48 h; type: cell-based; conditions: for IC50: Homo sapiens, HeLa, MTT, 48 h, read-out: IC50, µM Cervix HeLa; for Selectivity index: HeLa: IC50 in hFF3 / IC50 in HeLa
Procedure: (§1) On the first step of the biological evaluation of novel GA derivatives 3a-h, 4a-h, and 5a-h, we analyzed their cytotoxicity in a panel of cultured mammalian cells, including human cervical carcinoma HeLa and KB-3-1, human duodenal carcinoma HuTu-80, human lung adenocarcinoma A549, murine melanoma B16 cell lines, and nontransformed human fibroblasts hFF3. The cells were treated with derivatives for 48 h and cell viability was evaluated by 3-(4, 5-dimethylthiazol-2-yl)-2, 5-diphenyltetrazolium bromide (MTT) assay. Since the studied compounds contain two types of functional groups at position 3-acetoxy- or the hydroxyl-group, 3-acetoxy-GA 1 and GA-Me were used as references. Additionally, hierarchical clustering of cytotoxic data was carried out in order to reveal groups of compounds with similar cytotoxic profiles (Figure 2A).
(§2) Human cervical carcinoma HeLa and KB-3-1 cells, human duodenal carcinoma HuTu-80 cells, and human lung adenocarcinoma A549 cells were obtained from the Russian Culture Collection (Institute of Cytology, RAS, St. Petersburg, Russia). Melanoma B16-F10 (hereafter, melanoma B16) cells were obtained from the Cell Culture Bank of the Blokhin National Medical Oncology Research Center (Moscow, Russia). Nonmalignant fibroblasts hFF3 and RAW264.7 macrophages were kindly provided by Dr. Olga A. Koval (Institute of Chemical Biology and Fundamental Medicine, SB RAS, Novosibirsk, Russia) and Prof. Dmitry Kuprash (Engelhardt Institute of Molecular Biology, RAS, Moscow, Russia), respectively. The cells were cultured in DMEM (Sigma-Aldrich Inc., St. Louis, MO, USA) supplemented with 10% (v/v) heat-inactivated fetal bovine serum (FBS) (BioloT, St. Petersburg, Russia) and antibiotic–antimycotic solution (100 U/mL penicillin, 100 µg/mL streptomycin, 0.25 µg/mL amphotericin). […] The cells were incubated at 37 °C in a humidified 5% CO2-containing air atmosphere (hereafter referred to as standard conditions). GA derivatives were dissolved in DMSO (stock solutions: 10 mM) and stored at −20 °C prior to use.
(§3) Cells were seeded in tetra- or pentaplicates in 96-well plates at a density of 10^4 (tumor cells and […] fibroblasts) or 10^5 (RAW264.7 cells) cells per well. Cells were incubated under standard conditions for 24 h, followed by their treatment with the investigated derivatives (0.5–50 µM) or corresponding concentrations of DMSO (control) for a further 48 h (tumor cells and fibroblasts) or 24 h (RAW264.7 cells). At the end of incubation period, 10 µL of MTT solution was added to the cells (final concentration: 0.5 mg/mL) and plates were incubated for an additional 2 h under standard conditions. Then, the MTT-containing medium was aspirated and formazan crystals formed in living cells were solubilized with 100 µL of DMSO. The absorbance of each well was read at test and reference wavelengths of 570 and 620 nm, respectively, on a Multiscan RC plate reader (Thermo LabSystems, Helsinki, Finland). The IC50 values (the concentration of compounds leading to a decrease of A570 to 50% of A570^control) were calculated by extrapolation of the dose–response curves. […] A heatmap of SI values was constructed by Microsoft Excel 2010.

[3] = system: human cervical carcinoma KB-3-1; experiment: MTT cytotoxicity assay, 48 h; type: cell-based; conditions: for IC50: Homo sapiens, KB 3-1, MTT, 48 h, read-out: IC50, µM Cervix KB-3-1; for Selectivity index: KB-3-1: IC50 in hFF3 / IC50 in KB-3-1
Procedure: as §1, §2, §3

[4] = system: human duodenal carcinoma HuTu-80; experiment: MTT cytotoxicity assay, 48 h; type: cell-based; conditions: for IC50: Homo sapiens, HuTu80, MTT, 48 h, read-out: IC50, µM Duodenum HuTu-80; for Selectivity index: HuTu-80: IC50 in hFF3 / IC50 in HuTu-80
Procedure: as §1, §2, §3

[5] = system: human lung adenocarcinoma A549; experiment: MTT cytotoxicity assay, 48 h; type: cell-based; conditions: for IC50: Homo sapiens, A549, MTT, 48 h; for Selectivity index: A549: IC50 in hFF3 / IC50 in A549
Procedure: as §1, §2, §3

murine melanoma B16 = experiment: MTT cytotoxicity assay, 48 h; type: cell-based; conditions: for Selectivity index: B16: IC50 in hFF3 / IC50 in B16; for IC50: Mus musculus, MTT, 48 h
Procedure: as §1, §2, §3

[6] = system: nontransformed human fibroblasts hFF3; experiment: MTT cytotoxicity assay, 48 h; type: cell-based; conditions: Homo sapiens, HFF-3, read-out: IC50, µM Fibroblast hFF3
Procedure: as §1, §2, §3

[7] = system: HeLa, KB-3-1, HuTu-80, A549, B16 and hFF3 cells; experiment: MTT cytotoxicity, summary over the panel of cell lines; type: cell-based
Procedure: as §1, §3

[8] = system: carrageenan-induced paw edema; experiment: Carrageenan-induced paw edema; type: in vivo, ICR mice; conditions: gastric gavage 1 h before carrageenan, 5 h after induction; 3d 50 mg/kg, indomethacin 20 mg/kg
Procedure: To induce paw edema, ICR mice were injected with 1% carrageenan (50 μL) on the plantar side of the right hind paw. […] Mice were sacrificed 5 h after induction of paw edema. The percent of edema weight in carrageenan-injected compound-treated groups in comparison to that in vehicle-treated control group was calculated according to the formula: % Edema=(M1−M2/M2)^compound/∑n(M1−M2/M2)^vehicle×n×100%, where M1 is the weight of the paw with carrageenan-induced edema; M2 is the weight of the intact paws; compound and vehicle correspond to the compound- and vehicle-treated phlogogen-injected mice, respectively; and n is the number of mice in the control group (n = 9). Furthermore, paw material was collected for subsequent histological analysis.
For histological analysis, the specimens of intact and edema paws from each animal were dehydrated in ascending ethanol and xylol and embedded in HistoMix paraffin (BioVitrum, Russia). Paraffin sections (5 μm) were sliced on a Microm HM 355S microtome (Thermo Fisher Scientific, Waltham, MA, USA) and stained with hematoxylin and eosin. Images were obtained using an Axiostar Plus microscope equipped with an Axiocam MRc5 digital camera (Zeiss, Oberkochen, Germany) at ×100 and ×400 magnifications.

[9] = median over all tested cell lines, read-out: median IC50

| SMILES | distribution of leukocyte subpopulations in peritoneal fluid [1] | decrease of the total leukocyte number in peritoneal exudates ([1]; 3d 50 mg/kg, dexamethasone 1 mg/kg) [fold] | IC50 [2] [µM] | Selectivity index: HeLa [2] | IC50 [3] [µM] | Selectivity index: KB-3-1 [3] | IC50 [4] [µM] | Selectivity index: HuTu-80 [4] | IC50 [5] [µM] | Selectivity index: A549 [5] | Selectivity index: B16 (murine melanoma B16) | IC50 (murine melanoma B16) [µM] | IC50 [6] [µM] | IC50 [7, 9] [µM] | melting point | decrease of the weight of edema compared with vehicle-treated mice [8] | cytotoxicity in all tested cell lines [7] | IC50 ([7]; read-out: IC50 values with respect to all tested cell lines) [µM] |
| --- | --- | --- | --- | --- | --- | --- | --- | --- | --- | --- | --- | --- | --- | --- | --- | --- | --- | --- |
| C[C@@H]1C[C@H]2[C@@H]3CCC4=CC(=O)C=C[C@]4(C)[C@@]3(F)[C@@H](O)C[C@]2(C)[C@@]1(O)C(=O)CO [dexamethasone, reference compound] | did not affect the distribution of the leukocyte subpopulation | 1.8 | – | – | – | – | – | – | – | – | – | – | – | – | – | – | – | – |
| CC(=O)O[C@H]1CC[C@@]2(C)C(CC[C@]3(C)C2C(=O)C=C2[C@@H]4C[C@@](C)(C(=O)O/N=C(\C)N)CC[C@]4(C)CC[C@]23C)C1(C)C (stereo partly drawn) [Compound 3a] | – | – | 2.6 ± 0.1 | 0.7 | 5.9 ± 0.2 | 0.3 | 2.3 ± 0.1 | 0.7 | 2.6 ± 0.1 | 0.7 | 0.3 | 6.8 ± 0.2 | 1.7 ± 0.1 | 2.6 | 112.8 to 117.3 °C | – | – | – |
| CC(=O)O[C@H]1CC[C@@]2(C)C(CC[C@]3(C)C2C(=O)C=C2[C@@H]4C[C@@](C)(c5nc(-c6ccccn6)no5)CC[C@]4(C)CC[C@]23C)C1(C)C (stereo partly drawn) [Compound 4f, 30-nor-3β-acetoxy-11-oxo-20-(3′-(pyridin-2′′-yl)-1′,2′,4′-oxadiazol-5′-yl)-18βH-olean-12-en] | – | – | 17.9 ± 7.7 | 0.6 | 10.3 ± 1.2 | 1.1 | 11.4 ± 1 | 1.0 | 40.3 ± 4.1 | 0.3 | 1.9 | 6 ± 2.3 | 11.5 ± 1 | 11.5 | 293.5 to 297.9 °C | – | – | – |
| COc1ccc2c(c1)c(CC(=O)O)c(C)n2C(=O)c1ccc(Cl)cc1 [indomethacin, reference compound] | – | – | – | – | – | – | – | – | – | – | – | – | – | – | – | three-fold | – | – |
| CC1(C)C2CC[C@]3(C)C(C(=O)C=C4[C@@H]5C[C@@](C)(c6nc(-c7ccccc7)no6)CC[C@]5(C)CC[C@]43C)[C@@]2(C)CC[C@@H]1O (stereo partly drawn) [Compound 5e, 30-nor-3β-hydroxy-11-oxo-20-(3′-phenyl-1′,2′,4′-oxadiazol-5′-yl)-18βH-olean-12-en] | – | – | 20.3 ± 2.2 | > 2.5 | > 50 | – | > 50 | – | > 50 | – | – | > 50 | > 50 | – | 231.7 to 232.1 °C | – | nontoxic | – |
| CC(=O)O[C@H]1CC[C@@]2(C)C(CC[C@]3(C)C2C(=O)C=C2[C@@H]4C[C@@](C)(c5nc(-c6cccnc6)no5)CC[C@]4(C)CC[C@]23C)C1(C)C (stereo partly drawn) [Compound 4g, 30-nor-3β-acetoxy-11-oxo-20-(3′-(pyridin-3′′-yl)-1′,2′,4′-oxadiazol-5′-yl)-18βH-olean-12-en] | – | – | > 50 | – | 9.5 ± 0.5 | > 5.3 | 5.8 ± 0.5 | > 8.6 | 49.7 ± 4.5 | >1.0 | – | > 50 | > 50 | 49.9 | 253.2 °C (dec.) | – | – | – |
| CC(=O)O[C@H]1CC[C@@]2(C)C(CC[C@]3(C)C2C(=O)C=C2[C@@H]4C[C@@](C)(c5nc(-c6ccncc6)no5)CC[C@]4(C)CC[C@]23C)C1(C)C (stereo partly drawn) [Compound 4h, 30-nor-3β-acetoxy-11-oxo-20-(3′-(pyridin-4″-yl)-1′,2′,4′-oxadiazol-5′-yl)-18βH-olean-12-en] | – | – | > 50 | – | > 50 | – | 49.7 ± 2.4 | >1.0 | > 50 | – | – | > 50 | > 50 | – | 265.3 to 267.3 °C | – | nontoxic | ≥ 50 |
| CC(C)(C)c1noc([C@@]2(C)CC[C@]3(C)CC[C@]4(C)C(=CC(=O)C5[C@@]6(C)CC[C@H](O)C(C)(C)C6CC[C@]54C)[C@@H]3C2)n1 (stereo partly drawn) [Compound 5d, 30-nor-3β-hydroxy-11-oxo-20-(3′-tert-butyl-1′,2′,4′-oxadiazol-5′-yl)-18βH-olean-12-en] | – | – | 3.7 ± 0.9 | 5.8 | 22.3 ± 3.7 | 1.0 | 8.8 ± 1.1 | 2.5 | 23.5 ± 6.3 | 0.9 | 1.9 | 11.3 ± 1.9 | 21.6 ± 3.4 | 16.5 | 227.8 °C (dec.) | – | – | – |
